This is an account of results in US20070043110A1, “Nontoxic potentiation sensitization of ovarian cancer therapy by supplementary treatment with vitamins” (Summa Health System, priority 2001, published 2007).

Where a name gives a salt, the structure may show the parent alone. Read-outs that look alike come from different tables or passages of the source. Bounds are passed on as bounds.

The subject of series [1] is murine transplantable liver tumor (TLT). The settings on record: cited from earlier work.
Series [2] concerns PC3. Put plainly: Antitumor activity by MTT assay, PC3. As to conditions: Homo sapiens. The source says:
(§1) The FIC index was used to evaluate the synergism of the vitamins. A FIC<1.0 indicates the combination is synergistic, while a FIC>1.0 indicates the combination is antagonistic. A FIC=1.0 indicates the combination is indifferent. […] During this time, two requests for humanitarian intervention were made.

Series [3] concerns Caki-1. The series is described as follows: Antitumor activity by MTT assay, Caki-1. The settings on record: Homo sapiens.
Source text: as §1

Series [4] deals with CAOV-3 cell line. The series is described as follows: Cytotoxicity (CD50), CAOV-3. The class given is cell-based. As to conditions: Homo sapiens.
Source text: as §1

Series [5] relates to T24. Put plainly: Antitumor activity by MTT assay, T24. The settings on record: Homo sapiens.
Source text: as §1
A general note: Formazan colour is commonly taken as a measure of viable cells.

For series [6], the system named is MDA-MB-231. The series is described as follows: Antitumor activity by MTT assay, MDA-MB-231. The settings on record: Homo sapiens.
Source text: as §1

For series [7] the following is noted: 10 to 100 g twice per week; cited from earlier work.
Series [8] concerns CWR22. The series is described as follows: Antitumor activity by MTT assay, CWR22. The settings on record: Homo sapiens.
Source text: as §1

Series [9] relates to ES-2 cell line. The series is described as follows: Cytotoxicity (CD50), ES-2. It counts as cell-based. The settings on record: Homo sapiens.
Source text: as §1

The test system of series [10] is J82. Put plainly: Antitumor activity by MTT assay, J82. As to conditions: Homo sapiens.
Source text: as §1

Series [11] relates to TCCSUP. Put plainly: Antitumor activity by MTT assay, TCCSUP. As to conditions: Homo sapiens, TCC-SUP.
Source text: as §1

The test system of series [12] is advanced cancer. The settings on record: 10 grams given orally; cited from earlier work.
Series [13] deals with Tera-2. Put plainly: Antitumor activity by MTT assay, Tera-2. As to conditions: Homo sapiens.
Source text: as §1

Series [14] relates to prostate cancer. Put plainly: Randomized trial in prostate cancer patients, serum HCY and PSA. It counts as in vivo, human. Further details: Variation of Serum HCY (mean ± SD): unit not given here. The settings on record: for difference in serum levels of homocysteine and PSA versus control group: individual vitamin treatment groups (Group 2 or Group 3) vs Group 4. The method, then: Recently a prospective, randomized trial was performed with 20 prostate cancer patients who had pathologically proven prostate cancer in advanced stages (M1) with osseous metastasis and resistance to hormone therapy. The patients were randomly distributed in four groups of five patients each. […] In Group 2, ascorbic acid was omitted. In Group 3, menadione was omitted. A placebo was administered to patients of Group 4. Only two treatment courses were tested in this study so that the immediate effects of the vitamins in a clinical model could be determined and compared to the immediate induction of autoschizis elicited by the vitamin combination in preclinical models. Homocysteine (a good marker of the number of tumor cells with sensitivity for early detection of tumor cell death induced by treatments) and prostate specific antigen (PSA) assays were performed in the four groups to obtain information about the tumor cell death induced by the treatments. Serum homocysteine (HCY) and PSA were measured the first day of each week (day 1, 8, 15, 22, 29, 36, and […] of the study). […] This fall in serum HCY was highly significant (p<<0.01) in all weekly measures after the first series (day 8-42). […] The reasons for the initial increase in serum PSA levels are unknown.

Series [15] concerns DU145. The series is described as follows: Antitumor activity by MTT assay, DU145. As to conditions: Homo sapiens.
Source text: as §1

Series [16] relates to RT4. The series is described as follows: Antitumor activity by MTT assay, RT4. As to conditions: Homo sapiens.
Source text: as §1

Series [17] relates to MDAH 2774 cells. The series is described as follows: Antitumor activity by MTT assay, MDAH 2774.
Source text: as §1

Series [18] relates to SCaBER. The series is described as follows: Antitumor activity by MTT assay, SCaBER. The settings on record: Homo sapiens.
Source text: as §1

For series [19], the system named is SKOV3. Put plainly: Antitumor activity by MTT assay, SKOV3. As to conditions: Homo sapiens.
Source text: as §1

Series [20] concerns terminal cancer. The settings on record: cited from earlier work.
In series [21] the test system is hepatoma. The settings on record: weekly i.p. 10 mg/2 mL for 4 weeks, cited from earlier work.
Series [22] deals with advanced lung cancer. The settings on record: cited from earlier work.
For series [23] the following is noted: mice; cited from earlier work.
For series [24] the following is noted: 400-500 mg/day over 3-5 consecutive days; cited from earlier work.
Series [25] deals with gastrointestinal cancer. The settings on record: VK3 with mitomycin C; 43 patients; cited from earlier work.
The conditions of series [26]: cited from earlier work.
The conditions of series [27]: bisulfite form; cited from earlier work.
For series [28], the system named is tumor growth. As to conditions: cited from earlier work.
The conditions of series [29]: mouse, in vivo.
[30] abbreviates: read-out: Vitamins Alone, Vit C 50% Cytotoxic Dose.
The mark [31] stands for this setting: assay day 8, oral 7 day courses from day 1 and day 22, VC 5 g/m^2/day, VK3 50 mg/m^2/day, pretreatment = 0.
Where [32] appears, read: read-out: Vitamins Alone, Vit K3 50% Cytotoxic Dose.

On to `CC[C@]1(O)C[C@H]2CN(CCc3c([nH]c4ccccc34)[C@@](C(=O)OC)(c3cc4c(cc3OC)N(C=O)[C@H]3[C@@](O)(C(=O)OC)[C@H](OC(C)=O)[C@]5(CC)C=CCN6CC[C@]43[C@@H]65)C2)C1` [Oncovin, vincristine sulfate], for which the MST in series [1] (second study, each agent alone, Oncovin 0.3 mg/kg) is given as 19.0 days.

As for `O=C1O[C@H]([C@@H](O)CO)C([O-])=C1O.[Na+]` [Vitamin C, Sodium Ascorbate], the IC50 came to 2360 ± 39 µM in series [2] (PC-3, read-out: Vitamins Alone, Vit C 50% Cytotoxic Dose); 376 ± 1 µM in [3] (CAKI-1, read-out: Vitamins Alone, Vit C 50% Cytotoxic Dose); 1360 µM in series [4] (Caov-3, read-out: CD50, vitamin C alone); 1490 ± 141 µM in series [5] (T-24, read-out: Vitamins Alone, Vit C 50% Cytotoxic Dose); 466 ± 3.23 µM in series [6] (MDA-MB-231, read-out: Vitamins Alone, Vit C 50% Cytotoxic Dose); 254 ± 1.02 µM in series [8] (CWR22, read-out: Vitamins Alone, Vit C 50% Cytotoxic Dose). Moreover, the IC50 worked out at 197 µM in series [9] (read-out: CD50, VC alone); 376 ± 1 µM in series [10] (J82, read-out: Vitamins Alone, Vit C 50% Cytotoxic Dose); 297 ± 7 µM in [11] (setting [30]); 1312 ± 10 µM in series [13] (setting [30]); 2460 ± 28 µM in [15] (DU-145, read-out: Vitamins Alone, Vit C 50% Cytotoxic Dose); 2430 ± 28 µM in series [16] (RT-4, read-out: Vitamins Alone, Vit C 50% Cytotoxic Dose). In addition, the IC50 amounted to 1530 µM in series [17] (Homo sapiens, MDAH 2774, read-out: Vitamins Alone, Vit C 50% Cytotoxic Dose, MDAH, Ovarian); 1520 ± 29 µM in series [17] (read-out: Vitamins Alone, Vit C 50% Cytotoxic Dose, MDAH, Ovarian); 327 ± 6 µM in series [18] (setting [30]); 755 ± 24.1 µM in series [19] (SK-OV-3, read-out: Vitamins Alone, Vit C 50% Cytotoxic Dose). Also, the increased lifespan in [1] (VC alone 1 g/Kg body weight) is listed as 14.7%. In addition, in [7], the “remissions with high doses of i.v. VC” value was “a small number of complete remissions”. Moreover, in [12], the “effectiveness of oral Vitamin C” value is “no benefits”. The “Variation of Serum HCY (mean ± SD)” value in [14] (setting [31]) stood at 0.59 ± 0.508; in [14] (assay day 15) it was 0.74 ± 0.349; in [14] (assay day 22), 1.24 ± 0.448; in [14] (assay day 29) it was 1.45 ± 0.498; in series [14] (assay day 36), 1.32 ± 0.448; in [14] (assay day 42), 1.34 ± 0.486. Also, in [14], the “difference in serum levels of homocysteine and PSA versus control group” value is given as “non-significant difference”. Moreover, the mean survival time result is “more than 210 days” in series [20] (100 terminal cancer patients, 10 g/day i.v. for 10 days then 10 g/day orally, controls 50 days) and 148 days in series [20] (six ovarian cancer patients, controls 71 days).

With `CC1=CC(=O)c2ccccc2C1=O` [Vitamin K3, 2-Methyl-1,4-Naphthoquinone], the long term survivors in [21] was 5 out of 16. Moreover, the survival in [21] (control rats 17 days) is listed as 60 days. For the same compound, the IC50 in [2] (PC-3, read-out: Vitamins Alone, Vit K3 50% Cytotoxic Dose) was 11.4 ± 0.13 µM; in [3] (CAKI-1, read-out: Vitamins Alone, Vit K3 50% Cytotoxic Dose), 19.3 ± 0.33 µM; in [4] (Caov-3, read-out: CD50, VK3 alone) it was 22 µM; in [5] (T-24, read-out: Vitamins Alone, Vit K3 50% Cytotoxic Dose), 13.1 ± 0.01 µM; in [6] (MDA-MB-231, read-out: Vitamins Alone, Vit K3 50% Cytotoxic Dose) it was 7.1 ± 0.21 µM; in series [8] (CWR22, read-out: Vitamins Alone, Vit K3 50% Cytotoxic Dose) it was 4.1 ± 0.33 µM. In addition, the IC50 in series [9] (read-out: CD50, VK alone) turned out to be 25 µM; in series [10] (J82, read-out: Vitamins Alone, Vit K3 50% Cytotoxic Dose), 8.2 ± 0.15 µM; in series [11] (setting [32]), 6.3 ± 0.06 µM; in series [13] (setting [32]), 21.8 ± 0.73 µM; in series [15] (DU-145, read-out: Vitamins Alone, Vit K3 50% Cytotoxic Dose) it was 12.9 ± 0.81 µM; in series [16] (RT-4, read-out: Vitamins Alone, Vit K3 50% Cytotoxic Dose), 12.8 ± 0.03 µM. Moreover, the IC50 amounted to 41.8 µM in [17] (Homo sapiens, MDAH 2774, read-out: Vitamins Alone, Vit K3 50% Cytotoxic Dose, MDAH, Ovarian); 9.7 ± 0.15 µM in series [18] (setting [32]); 22 ± 1.93 µM in series [19] (SK-OV-3, read-out: Vitamins Alone, Vit K3 50% Cytotoxic Dose). In series [1] (VK3 alone 0.01 g/Kg body weight), the increased lifespan is 1.07%. For the same compound, the median survival in series [22] (VK3 in combination with mitomycin C, 23 patients) was 5.5 months. The “patients exhibiting hematologic toxicity” value in series [22] (VK3 with mitomycin C) is 30%. In addition, the “patients exhibiting some tumor regression” value in series [22] (VK3 with mitomycin C) is 26%. Also, the 50% lethal dose (LD50) (in general, the dose at which mortality reaches 50%) in series [23] is 500 mg/kg. Besides, in series [24], the “toxicity in phase I clinical trials” value is “without any appreciable toxicity”. The response to therapy result in [25] is recorded as “no objective response”. The “maximum tolerated dose of VK3” value in series [26] (48-hour intravenous infusion, followed by mitomycin C 15 mg/m2 every four weeks) was 2.5 g/m^2. Besides, the tolerability entry in series [26] (i.v., in conjunction with mitomycin C, Phase I and Phase II trials) was “well tolerated”. Also, the “hemolysis at maximum tolerated dose” value in [26] (with mitomycin C every four weeks) is “no hemolysis”. The solubility entry in [27] was “water soluble”. The “Variation of Serum HCY (mean ± SD)” value in [14] (setting [31]) came to 0.468 ± 0.362; in [14] (assay day 15) it was 0.59 ± 0.227; in series [14] (assay day 22), 0.68 ± 0.210; in series [14] (assay day 29) it was 0.76 ± 0.341; in [14] (assay day 36) it was 1.12 ± 0.400; in series [14] (assay day 42) it was 1.3 ± 0.432. Besides, the “difference in serum levels of homocysteine and PSA versus control group” value in [14] is recorded as “non-significant difference”. In addition, the entries for the “inhibition of tumor growth” value in series [28] (VK3 225 mg/kg/day with methotrexate) and in series [28] (menadione 250 mg/kg/day with methotrexate 0.75 mg/kg/day) were 84% and 99%, respectively. For the same compound, the “circulating levels of VK3 that induce synergism with methotrexate” value in series [28] (rat, in vivo) is not below 1 µM. Moreover, the toxicity to livers result in series [29] is “no toxicity”.

With `O=P1(N(CCCl)CCCl)NCCCO1` (stereo not shown) [cyclophosphamide], the ILS (as a rule, the gain in survival time of treated over control animals, in per cent) in series [1] (single dose of cyclophosphamide 80 mg/kg body weight) was 23%. For the same compound, the MST in [1] (single dose of cyclophosphamide 80 mg/kg body weight, untreated 16.8 days) is reported as 20.6 days.
